PubChem BioAssay AID1845200 (Molecular Pharmacology Branch, DTP, NCI, 2023)

Tested on: ASPS-1 complex tumor spheroids, viability
Test: Anticancer human tumor ASPS-1 cell line growth inhibition;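 also: spheroids exposed to agents for 7 days after 3 days of growth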;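 as to viability, T/C: 100% = DMSO vehicle treated spheroids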
Conditions: for IC50: curve of first compound; for viability, T/C: stronger effect = lower value
Outline: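 Complex tumor spheroids combined malignant cells with endothelial cells and mesenchymal stem cells. DNA-damaging drugs and DNA repair inhibitors were tested alone and in combination, at half-log dilutions down from clinical Cmax (top 10 microM if Cmax unknown), 0.25% DMSO final.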

[1] = second compound 1 µM, first compound 0.0316 µM
[2] = second compound 1 µM, first compound 0.1 µM
[3] = second compound 1 µM, first compound 0.316 µM
[4] = second compound 1 µM, first compound 1 µM
[5] = second compound 1 µM, first compound 3.16 µM
[6] = second compound 1 µM, first compound 10 µM
[7] = second compound 3.16 µM, first compound 0.0316 µM
[8] = second compound 3.16 µM, first compound 0.1 µM
[9] = second compound 3.16 µM, first compound 0.316 µM
[10] = second compound 3.16 µM, first compound 1 µM
[11] = second compound 3.16 µM, first compound 3.16 µM
[12] = second compound 3.16 µM, first compound 10 µM
[13] = second compound 10 µM, first compound 0.0316 µM
[14] = second compound 10 µM, first compound 0.1 µM
[15] = second compound 10 µM, first compound 0.316 µM
[16] = second compound 10 µM, first compound 1 µM
[17] = second compound 10 µM, first compound 3.16 µM
[18] = second compound 10 µM, first compound 10 µM
[19] = second compound 31.6 µM, first compound 0.0316 µM
[20] = second compound 31.6 µM, first compound 0.1 µM
[21] = second compound 31.6 µM, first compound 0.316 µM
[22] = second compound 31.6 µM, first compound 1 µM
[23] = second compound 31.6 µM, first compound 3.16 µM
[24] = second compound 31.6 µM, first compound 10 µM
[25] = second compound 100 µM, first compound 0.0316 µM
[26] = second compound 100 µM, first compound 0.1 µM
[27] = second compound 100 µM, first compound 0.316 µM
[28] = second compound 100 µM, first compound 1 µM
[29] = second compound 100 µM, first compound 3.16 µM
[30] = second compound 100 µM, first compound 10 µM

Row | SMILES | IC50 (second compound 1 µM) | IC50 (second compound 3.16 µM) | IC50 (second compound 10 µM) | IC50 (second compound 31.6 µM) | IC50 (second compound 100 µM) | viability, T/C [1] | viability, T/C [2] | viability, T/C [3] | viability, T/C [4] | viability, T/C [5] | viability, T/C [6] | viability, T/C [7] | viability, T/C [8] | viability, T/C [9] | viability, T/C [10] | viability, T/C [11] | viability, T/C [12] | viability, T/C [13] | viability, T/C [14] | viability, T/C [15] | other results
1 | Cc1cc(C)c(CNC(=O)c2cc(-c3ccc(CN4CCOCC4)cc3)cc3c2cnn3C2CCCC2)c(=O)[nH]1 + Cn1nnc2c(C(N)=O)ncn2c1=O | > 10 µM | > 10 µM | > 10 µM | > 10 µM | > 10 µM | 94.8% | 95.4% | 94.8% | 92.7% | 93.2% | 86.7% | 102% | 98.1% | 98.8% | 99.6% | 92% | 91.2% | 86.3% | 77.6% | 88% | viability, T/C [16]: 89.3%; viability, T/C [17]: 82%; viability, T/C [18]: 82%; viability, T/C [19]: 81.4%; viability, T/C [20]: 83.7%; viability, T/C [21]: 77.7%; viability, T/C [22]: 87.3%; viability, T/C [23]: 73.2%; viability, T/C [24]: 69.8%; viability, T/C [25]: 69%; viability, T/C [26]: 67.5%; viability, T/C [27]: 73.4%; viability, T/C [28]: 71.3%; viability, T/C [29]: 61.3%; viability, T/C [30]: 55.3%
2 | [2H]c1nc(C)nc([2H])c1-c1cc(NC[C@@H](C)c2cccc3c(C(=O)NC)ccnc23)ncn1 + Cn1nnc2c(C(N)=O)ncn2c1=O | > 10 µM | > 10 µM | > 10 µM | > 10 µM | > 10 µM | 106% | 100% | 98.3% | 101% | 95.8% | 99.2% | 104% | 104% | 103% | 104% | 101% | 98.3% | 88.4% | 93.2% | 96.4% | viability, T/C [16]: 90.1%; viability, T/C [17]: 89.5%; viability, T/C [18]: 89.7%; viability, T/C [19]: 79.8%; viability, T/C [20]: 80.2%; viability, T/C [21]: 81.1%; viability, T/C [22]: 79.7%; viability, T/C [23]: 78.3%; viability, T/C [24]: 76.4%; viability, T/C [25]: 74.2%; viability, T/C [26]: 72.5%; viability, T/C [27]: 74.5%; viability, T/C [28]: 66.5%; viability, T/C [29]: 68.4%; viability, T/C [30]: 65.8%
